# Assays:
# [1] = molecular target: T1, Mitogen-activated protein kinase 13 (Homo sapiens) (UniProt O15264); assay: Selectivity interaction (KinomeScan (DiscoverX)) EUB0001049a MAPK13; settings: at 1 µM
# T1 sequence (whole entry): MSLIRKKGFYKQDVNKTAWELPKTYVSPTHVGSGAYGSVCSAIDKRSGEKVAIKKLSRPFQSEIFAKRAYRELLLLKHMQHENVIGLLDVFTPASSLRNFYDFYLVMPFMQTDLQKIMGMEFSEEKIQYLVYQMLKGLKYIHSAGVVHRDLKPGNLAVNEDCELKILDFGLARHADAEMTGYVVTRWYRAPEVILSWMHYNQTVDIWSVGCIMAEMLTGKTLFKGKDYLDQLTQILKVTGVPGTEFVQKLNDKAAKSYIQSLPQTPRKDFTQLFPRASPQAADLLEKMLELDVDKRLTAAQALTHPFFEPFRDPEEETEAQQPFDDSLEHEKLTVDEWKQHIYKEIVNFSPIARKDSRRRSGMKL
# [2] = molecular target: Tyrosine-protein kinase JAK2 (Homo sapiens, UniProt O60674); settings: at 10 µM
# [3] = molecular target: Mitogen-activated protein kinase kinase kinase kinase 5 (Homo sapiens) (UniProt Q9Y4K4); settings: at 10 µM
# [4] = molecular target: Phosphatidylinositol 4-phosphate 3-kinase C2 domain-containing subunit beta (Homo sapiens) (UniProt O00750); assay: Selectivity interaction (KinomeScan (DiscoverX)) EUB0000229b PIK3C2B; settings: at 10 µM
# [5] = molecular target: Tyrosine-protein kinase Fes/Fps (Homo sapiens) (UniProt P07332); assay: Selectivity interaction (KinomeScan (DiscoverX)) EUB0001079a FES; settings: at 1 µM
# [6] = molecular target: T2, cGMP-dependent protein kinase 2 (Homo sapiens) (UniProt Q13237); assay: Selectivity interaction (Upstate Kinase Profiler service (Millipore)) EUB0000056c PRKG2; settings: at 1 µM
# T2 sequence (whole entry): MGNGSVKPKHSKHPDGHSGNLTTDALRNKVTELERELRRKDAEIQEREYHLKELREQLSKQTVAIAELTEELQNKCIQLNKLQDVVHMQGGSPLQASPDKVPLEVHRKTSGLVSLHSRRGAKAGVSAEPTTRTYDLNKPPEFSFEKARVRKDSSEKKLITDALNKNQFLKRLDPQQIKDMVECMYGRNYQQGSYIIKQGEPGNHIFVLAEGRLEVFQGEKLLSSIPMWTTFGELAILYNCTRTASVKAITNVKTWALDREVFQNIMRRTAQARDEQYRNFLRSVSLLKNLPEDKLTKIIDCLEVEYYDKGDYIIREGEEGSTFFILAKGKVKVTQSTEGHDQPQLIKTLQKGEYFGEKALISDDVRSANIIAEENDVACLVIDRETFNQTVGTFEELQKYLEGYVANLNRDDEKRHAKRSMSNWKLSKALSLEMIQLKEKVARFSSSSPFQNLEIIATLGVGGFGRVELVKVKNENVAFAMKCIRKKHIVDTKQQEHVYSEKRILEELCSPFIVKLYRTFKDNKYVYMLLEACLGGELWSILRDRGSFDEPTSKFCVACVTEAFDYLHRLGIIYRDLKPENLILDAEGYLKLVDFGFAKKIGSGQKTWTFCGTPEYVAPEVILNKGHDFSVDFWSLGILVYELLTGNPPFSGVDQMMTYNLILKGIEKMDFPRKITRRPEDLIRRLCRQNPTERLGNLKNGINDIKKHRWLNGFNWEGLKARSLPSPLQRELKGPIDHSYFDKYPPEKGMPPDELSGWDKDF
# [7] = molecular target: T3, Serine/threonine-protein kinase Nek1 (Homo sapiens) (UniProt Q96PY6); assay: Selectivity interaction (KinomeScan (DiscoverX)) EUB0000655a NEK1; settings: at 10 µM
# T3 sequence (whole entry): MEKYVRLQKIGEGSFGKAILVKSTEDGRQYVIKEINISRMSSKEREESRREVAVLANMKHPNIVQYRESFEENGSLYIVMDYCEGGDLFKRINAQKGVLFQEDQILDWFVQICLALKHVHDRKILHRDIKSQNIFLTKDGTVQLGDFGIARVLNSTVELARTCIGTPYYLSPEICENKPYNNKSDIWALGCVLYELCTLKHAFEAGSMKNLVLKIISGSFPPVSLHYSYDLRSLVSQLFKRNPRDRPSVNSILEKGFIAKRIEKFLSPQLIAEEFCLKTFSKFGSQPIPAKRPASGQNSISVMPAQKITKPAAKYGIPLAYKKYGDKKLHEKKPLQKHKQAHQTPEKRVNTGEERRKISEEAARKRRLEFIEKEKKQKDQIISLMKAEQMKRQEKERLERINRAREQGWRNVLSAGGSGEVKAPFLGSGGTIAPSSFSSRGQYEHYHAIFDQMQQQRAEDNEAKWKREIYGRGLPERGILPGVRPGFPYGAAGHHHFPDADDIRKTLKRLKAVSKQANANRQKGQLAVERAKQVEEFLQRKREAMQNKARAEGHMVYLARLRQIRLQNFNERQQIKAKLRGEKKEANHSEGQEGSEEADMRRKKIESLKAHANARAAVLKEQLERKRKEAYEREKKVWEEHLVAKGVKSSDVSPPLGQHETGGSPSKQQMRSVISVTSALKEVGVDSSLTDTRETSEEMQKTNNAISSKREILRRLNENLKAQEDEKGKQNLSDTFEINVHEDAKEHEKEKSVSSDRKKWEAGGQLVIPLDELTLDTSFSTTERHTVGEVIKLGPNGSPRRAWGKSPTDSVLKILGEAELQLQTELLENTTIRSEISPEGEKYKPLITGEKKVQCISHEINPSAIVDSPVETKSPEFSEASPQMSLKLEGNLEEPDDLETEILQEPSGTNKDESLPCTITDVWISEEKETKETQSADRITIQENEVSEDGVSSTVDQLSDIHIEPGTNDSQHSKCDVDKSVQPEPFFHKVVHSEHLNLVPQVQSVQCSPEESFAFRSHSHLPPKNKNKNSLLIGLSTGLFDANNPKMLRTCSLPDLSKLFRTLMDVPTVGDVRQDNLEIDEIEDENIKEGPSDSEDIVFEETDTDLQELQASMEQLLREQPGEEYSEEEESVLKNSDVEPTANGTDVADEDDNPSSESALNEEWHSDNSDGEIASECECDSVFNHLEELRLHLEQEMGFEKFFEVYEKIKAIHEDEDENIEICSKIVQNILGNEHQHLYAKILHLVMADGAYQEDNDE
# Sequence of Tyrosine-protein kinase JAK2 (O60674 whole entry): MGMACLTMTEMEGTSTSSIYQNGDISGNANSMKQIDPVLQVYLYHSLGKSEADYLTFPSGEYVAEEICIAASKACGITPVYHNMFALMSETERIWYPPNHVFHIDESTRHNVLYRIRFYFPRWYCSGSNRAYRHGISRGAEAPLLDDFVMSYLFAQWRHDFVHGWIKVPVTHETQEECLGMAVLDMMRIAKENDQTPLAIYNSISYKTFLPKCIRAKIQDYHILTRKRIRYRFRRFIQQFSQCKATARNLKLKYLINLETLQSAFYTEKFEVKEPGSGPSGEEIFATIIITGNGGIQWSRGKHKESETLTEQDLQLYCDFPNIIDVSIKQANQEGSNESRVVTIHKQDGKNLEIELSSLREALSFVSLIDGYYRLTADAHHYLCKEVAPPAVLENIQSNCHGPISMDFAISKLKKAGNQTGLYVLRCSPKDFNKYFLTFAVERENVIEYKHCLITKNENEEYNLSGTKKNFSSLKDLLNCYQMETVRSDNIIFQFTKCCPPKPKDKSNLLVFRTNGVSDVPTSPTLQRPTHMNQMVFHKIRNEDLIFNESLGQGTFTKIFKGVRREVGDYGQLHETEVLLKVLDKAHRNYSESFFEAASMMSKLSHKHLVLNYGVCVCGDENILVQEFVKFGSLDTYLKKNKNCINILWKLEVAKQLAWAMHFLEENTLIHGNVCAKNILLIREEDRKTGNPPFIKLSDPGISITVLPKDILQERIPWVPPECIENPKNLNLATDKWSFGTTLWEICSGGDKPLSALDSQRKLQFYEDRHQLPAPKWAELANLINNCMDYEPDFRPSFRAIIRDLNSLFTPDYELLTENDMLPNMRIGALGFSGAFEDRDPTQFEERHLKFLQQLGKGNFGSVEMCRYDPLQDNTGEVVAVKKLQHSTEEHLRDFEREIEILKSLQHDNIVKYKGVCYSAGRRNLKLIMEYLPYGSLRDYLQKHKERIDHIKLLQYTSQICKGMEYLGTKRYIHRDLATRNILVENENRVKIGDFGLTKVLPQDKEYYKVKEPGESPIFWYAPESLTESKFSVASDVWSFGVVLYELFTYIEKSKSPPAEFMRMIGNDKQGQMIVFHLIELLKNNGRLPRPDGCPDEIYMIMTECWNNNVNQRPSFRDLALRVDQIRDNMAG
# Sequence of Mitogen-activated protein kinase kinase kinase kinase 5 (Homo sapiens) (Q9Y4K4 whole entry, looked up, the tested form may be a part): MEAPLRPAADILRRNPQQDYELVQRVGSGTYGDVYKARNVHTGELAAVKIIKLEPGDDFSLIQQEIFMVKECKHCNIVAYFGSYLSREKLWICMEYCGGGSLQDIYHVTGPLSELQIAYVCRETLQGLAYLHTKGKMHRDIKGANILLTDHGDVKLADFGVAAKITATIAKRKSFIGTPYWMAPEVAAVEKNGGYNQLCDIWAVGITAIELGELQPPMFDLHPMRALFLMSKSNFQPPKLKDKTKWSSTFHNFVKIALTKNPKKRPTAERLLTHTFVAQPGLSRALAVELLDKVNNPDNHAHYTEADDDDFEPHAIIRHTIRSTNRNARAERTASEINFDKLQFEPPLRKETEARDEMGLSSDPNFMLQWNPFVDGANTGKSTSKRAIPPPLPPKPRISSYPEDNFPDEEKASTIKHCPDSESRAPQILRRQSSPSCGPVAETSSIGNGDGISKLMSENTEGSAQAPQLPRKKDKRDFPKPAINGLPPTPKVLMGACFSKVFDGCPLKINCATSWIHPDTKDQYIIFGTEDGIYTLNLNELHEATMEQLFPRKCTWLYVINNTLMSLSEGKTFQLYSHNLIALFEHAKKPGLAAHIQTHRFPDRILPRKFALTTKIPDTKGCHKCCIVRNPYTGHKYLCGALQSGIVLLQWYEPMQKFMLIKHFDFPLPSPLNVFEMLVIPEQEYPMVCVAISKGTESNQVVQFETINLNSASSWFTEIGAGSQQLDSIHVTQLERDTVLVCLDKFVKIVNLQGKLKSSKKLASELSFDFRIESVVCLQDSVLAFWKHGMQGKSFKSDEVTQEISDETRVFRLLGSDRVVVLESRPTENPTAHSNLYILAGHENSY
# Sequence of Tyrosine-protein kinase Fes/Fps (Homo sapiens) (P07332 whole entry): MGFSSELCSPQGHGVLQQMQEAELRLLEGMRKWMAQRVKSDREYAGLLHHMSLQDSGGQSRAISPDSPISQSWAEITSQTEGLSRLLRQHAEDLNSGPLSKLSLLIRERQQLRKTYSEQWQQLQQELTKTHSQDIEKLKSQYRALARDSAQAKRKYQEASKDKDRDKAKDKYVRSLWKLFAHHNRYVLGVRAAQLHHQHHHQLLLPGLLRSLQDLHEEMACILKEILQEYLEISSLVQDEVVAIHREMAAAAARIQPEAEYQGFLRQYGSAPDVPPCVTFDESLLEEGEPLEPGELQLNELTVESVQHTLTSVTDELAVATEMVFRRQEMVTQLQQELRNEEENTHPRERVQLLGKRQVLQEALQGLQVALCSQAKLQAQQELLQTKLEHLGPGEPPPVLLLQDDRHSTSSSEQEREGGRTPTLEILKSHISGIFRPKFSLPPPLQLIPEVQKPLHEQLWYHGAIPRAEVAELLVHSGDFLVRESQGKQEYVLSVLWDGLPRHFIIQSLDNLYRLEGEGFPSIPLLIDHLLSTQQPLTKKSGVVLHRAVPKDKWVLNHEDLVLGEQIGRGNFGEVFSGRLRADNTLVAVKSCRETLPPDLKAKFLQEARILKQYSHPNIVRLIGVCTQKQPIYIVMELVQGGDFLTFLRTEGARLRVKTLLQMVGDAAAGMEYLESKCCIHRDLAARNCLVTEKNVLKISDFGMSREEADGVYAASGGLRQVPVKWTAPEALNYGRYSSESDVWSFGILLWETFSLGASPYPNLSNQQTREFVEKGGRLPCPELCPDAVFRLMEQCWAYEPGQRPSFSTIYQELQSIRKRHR
# Sequence of Phosphatidylinositol 4-phosphate 3-kinase C2 domain-containing subunit beta (Homo sapiens) (O00750 whole entry, the tested form may be a part): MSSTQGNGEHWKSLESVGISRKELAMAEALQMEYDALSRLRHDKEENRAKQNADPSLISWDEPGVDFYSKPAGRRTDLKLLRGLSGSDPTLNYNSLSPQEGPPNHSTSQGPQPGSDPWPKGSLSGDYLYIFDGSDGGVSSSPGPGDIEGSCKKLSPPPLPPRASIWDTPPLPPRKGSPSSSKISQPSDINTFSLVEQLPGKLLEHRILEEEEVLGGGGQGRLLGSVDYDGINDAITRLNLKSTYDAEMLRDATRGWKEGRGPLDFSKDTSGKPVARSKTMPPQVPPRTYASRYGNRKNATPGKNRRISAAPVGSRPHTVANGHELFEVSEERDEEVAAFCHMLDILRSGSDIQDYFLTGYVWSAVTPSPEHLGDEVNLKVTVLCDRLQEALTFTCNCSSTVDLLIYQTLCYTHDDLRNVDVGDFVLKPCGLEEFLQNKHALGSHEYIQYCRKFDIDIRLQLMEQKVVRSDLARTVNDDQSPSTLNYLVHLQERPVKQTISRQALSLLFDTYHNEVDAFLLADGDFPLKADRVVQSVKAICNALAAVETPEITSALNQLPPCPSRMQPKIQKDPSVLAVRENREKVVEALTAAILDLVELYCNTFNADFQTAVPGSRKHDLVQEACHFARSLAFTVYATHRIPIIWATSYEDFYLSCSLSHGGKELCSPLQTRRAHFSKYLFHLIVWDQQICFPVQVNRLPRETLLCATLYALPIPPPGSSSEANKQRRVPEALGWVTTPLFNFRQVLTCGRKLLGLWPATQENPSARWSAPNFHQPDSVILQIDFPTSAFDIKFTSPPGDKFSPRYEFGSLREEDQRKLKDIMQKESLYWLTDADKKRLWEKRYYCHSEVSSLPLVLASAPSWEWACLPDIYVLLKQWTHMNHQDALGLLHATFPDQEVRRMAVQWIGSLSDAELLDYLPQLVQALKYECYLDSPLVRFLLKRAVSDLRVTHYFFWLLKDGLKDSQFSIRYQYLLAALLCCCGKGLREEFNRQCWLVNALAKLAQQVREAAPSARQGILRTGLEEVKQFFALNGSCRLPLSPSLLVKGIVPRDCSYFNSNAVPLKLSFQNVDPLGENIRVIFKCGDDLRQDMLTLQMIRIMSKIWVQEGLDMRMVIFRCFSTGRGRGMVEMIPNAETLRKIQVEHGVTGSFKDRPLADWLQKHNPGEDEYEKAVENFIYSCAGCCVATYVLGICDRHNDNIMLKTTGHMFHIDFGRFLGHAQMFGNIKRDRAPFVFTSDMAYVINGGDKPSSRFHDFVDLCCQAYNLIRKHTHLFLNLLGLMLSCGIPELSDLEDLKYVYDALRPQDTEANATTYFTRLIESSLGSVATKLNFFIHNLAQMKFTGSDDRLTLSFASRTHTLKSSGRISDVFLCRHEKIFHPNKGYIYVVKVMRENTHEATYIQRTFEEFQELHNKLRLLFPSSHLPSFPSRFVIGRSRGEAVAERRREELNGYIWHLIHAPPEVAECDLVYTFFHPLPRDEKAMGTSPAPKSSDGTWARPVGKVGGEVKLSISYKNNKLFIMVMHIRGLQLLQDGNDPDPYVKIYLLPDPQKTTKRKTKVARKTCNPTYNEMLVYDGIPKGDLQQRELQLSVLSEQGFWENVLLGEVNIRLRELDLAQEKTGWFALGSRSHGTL
smiles,measurement,setting,value
COc1cc(Nc2nc(C)cc(-c3cnn4nc(OC)ccc34)n2)cc(C(F)(F)F)c1,% of control,[1],95%
CCN(CC)CCCCNc1ncc2cc(-c3cc(OC)cc(OC)c3)c(NC(=O)NC(C)(C)C)nc2n1,% of control,[2],100%
same,% of control,[3],100%
COc1cc(N(C)c2ccnc3ccc(C(F)(F)F)cc23)cc(OC)c1OC,% binding,[4],100%
Nc1cnc(N2CCc3cc(S(=O)(=O)Nc4c(F)cc(Cl)cc4F)cc(N4CCCC4=O)c32)nc1 [TP-020n],% of control,[5],100%
Cc1ccc(-c2ccc3c(ccc4sc5c(c43)NC[C@@H](C)NC5=O)n2)cn1,% of inhibition,[6],-6%
CN(C)CCOc1ccc(-c2nc(-c3ccncc3)c(-c3ccc4c(c3)CC/C4=N\O)[nH]2)cc1,% of control,[7],87%
